This note sets out measurements from patent US11357749B2, “Methods for treating neutropenia” (Enzychem Lifesciences Corporation, priority 2014, dated 2022).

The subject of one assay is STAT1. The assay is described as follows: IFN-γ induced STAT1 phosphorylation, western blot in U937 cells. The assay is classed as cell-based. Conditions: PLAG 0.01 to 10 μg/ml, 10 ng IFN-γ, 15 min. On the procedure:
Dephosphorylation of STAT6 is examined using anti-phosphorylated STAT6 in U937, A549, and Jurkat cell lysates treated with PLAG concentration from 0.01 to 10 μg/ml. Phosphorylation of STAT6 is induced by treatment with 10 ng/ml of IL-4. Dephosphorylation of STAT1 is examined in the U937 cell lysate treated with PLAG (0.01 to 10 μg/ml). Phosphorylation of STAT1 is induced by 10 ng of IFN-γ treatment. Dephosphorylation of STAT1 and STAT6 is examined at 15 min after stimulation with IFN-γ and IL-4 respectively, in the PLAG pretreated cells. […] The transcriptional activity of STAT6 is decreased by the dephosphorylation of STAT6. […] No effect of PLAG on STAT1 phosphorylation is observed.

The subject of a further assay is platelets. The assay is described as follows: Pilot study in pancreatic cancer patients receiving chemotherapy: platelets. It is filed as in vivo, human. The note with it: 16 patients, Gemcitabine and Erlotinib, PLAG 1,000 mg once per day orally, two cycles. On the procedure:
PLAG is administered to sixteen pancreatic cancer patients after chemotherapy. The subjects of this study are unoperable pancreatic cancer patients with ECOG (Eastern Cooperative Oncology Group) performance status of “0” or “1”, i.e. patients in good physical condition without much pain, able to enjoy almost normal lifestyle and thus, eligible for anticancer treatment for at least 2 months. The pancreatic cancer patients are “locally advanced” patients having tumor metastasis to the major vessels around pancreas or “Distant metastasis” patients with distant metastasis to liver, lung, bone, etc. ECOG performance status “0” refers to a patient who is asymptomatic, fully active, able to carry on all predisease activities without restriction with no pain and no problem for normal lifestyle, while “1” refers to a patient who is symptomatic but completely ambulatory with mile pain and a little problem for normal life. Anticancer (Gemcitabine and Erlotinib combo treatment) Regimen is as follows: 1,000 mg of Gemcitabine is injected once a week for three weeks (Day 1, Day 8, Day 15), and is not injected in the next one week (Day 22). Therefore, 1 cycle of anticancer treatment requires 1 month. 100 mg of Erlotinib (Tarceva) is administered once per day everyday orally. 1,000 mg of PLAG is also administered once per day orally, starting from 3 days before anticancer treatment until the last chemotherapy treatment. The PLAG treatment group and control group both completed two cycles of anticancer treatment. There is no difference among the control and PALG treatment groups in the amount or schedule of anticancer treatment.

Assay [1] has as its system white blood cells and neutrophils. The assay can be described thus: Cyclophosphamide-induced neutropenia in mice, G-CSF with or without PLAG. It is filed as in vivo. The note with it: PLAG 25 mpk p.o. added to G-CSF 0.25 mpk i.p., cyclophosphamide-treated mice. An excerpt: Mice receive cyclophosphamide (100 mpk, i.p.) for a period of ten days, with or without G-CSF (0.25 mpk, i.p.) or G-CSF (0.25 mpk, i.p.) plus PLAG (25 mpk, p.o.): […]

The test system of a further assay is C3. The assay is described as follows: C3 expression (RT-PCR) in IL-4/TNF-α treated HMC-1 cells. It is filed as cell-based, human. The note with it: HMC-1 cells treated with IL-4 and TNF-α; PLAG 0.1 and 1 μg/mL. On the procedure:
A blood cell line, HMC-1 (human mast cell, American Type Culture Collection, ATCC, Rockville, Md.) is incubated and maintained at 37° C. under 5% CO2 humid conditions. The medium is IMDM (Life Technologies, Karlsruhe, Germany) containing 10% Fetal Calf Serum (FCS, HyClone, Logan, Utah), 2 mM […], 100 μg/ml penicillin, 100 μg/ml streptomycin (Life Technologies). The cultured HMC-1 cells (1×10^6 cell/ml) are pre-treated with 0.1 and 1 μg/mL concentration of PLAG, followed by treating with IL-4 (5 ng) and/or TNF-α (10 ng) to induce cellular activities.
The expressed C3 and its mRNA level change are observed by using RT-PCR (Reverse Transcriptase Polymerase Chain Reaction). The RT-PCR is carried out as follows: the total RNA is separated by the standard protocol and cDNA is synthesized using AccuScript High Fidelity 1st Strand cDNA Synthesis Kit (Stratagene) by the manufacturer's instructions. Two-step RT-PCR reaction is conducted using Oligo-dT primer and reverse transcriptase, pair of primer and Taq polymerase (Takara, Shiga, Japan). […] The product of PCR is separated using 1.5% agarose gel, dyed with ethidium bromide (EtBr), and visualized with Gel Doc 2000 UV trans-illuminator (Bio-Rad Laboratories, Hercules, Calif., USA), and the experimental data is analyzed using Quantity One software (Bio-Rad Laboratories).

In another assay the test system is neutrophils. The assay is described as follows: Migration of neutrophils in LPS-injected mice (blood and lymph counts). The assay is classed as in vivo. On the procedure:
Mice are injected with bacterial lipopolysaccharide (LPS) to provoke an inflammatory response, in the presence or absence of PLAG: […]

A further assay concerns Complement 3. The assay is described as follows: Clinical study in healthy subjects: Complement 3 in blood. It is filed as in vivo, human. As to the method:
A clinical study is conducted in Gwandong University MyungJi Hospital Clinical Study Center in Republic of Korea with 27 healthy patients to study immune-modulating effect of PLAG. Volunteers are tested for 30 days in vivo as oral administer (500 mg of PLAG per day) under a legitimate clinical approval. Complement 3 is counted using C3 assay kit. The analysis result is shown in FIG. 7, and change of immunoactivity by the administration of PLAG in healthy subjects is shown in Table 8 (effect of PLAG supplementation on immune function of peripheral blood after 4-wk intervention). As shown in FIG. 7 and Table 8, the majority of those who consume PLAG for a month (twenty-six (26) subjects out of 27 patients) show decreased complement 3 (C3), while the control group, who are treated with soybean oil, show both increase and decrease of C3.

In assay [2] the test system is splenic nodules, primitive progenitor cells and megakaryocytes. The assay can be described thus: Colony forming units in spleen (CFUs) assay in heavily irradiated mice. It is filed as in vivo. Conditions: 50 mg/kg/d i.p. or p.o. As to the method:
In order to determine the in vivo effect of PLAG on the recovery of hematopoiesis, a CFUs assay is performed in heavily irradiated mice.

In the case of `CCCCC/C=C\C/C=C\CCCCCCCC(=O)OC(COC(C)=O)COC(=O)CCCCCCCCCCCCCCC` (racemic) [PLAG, 1-palmitoyl-2-linoleoyl-3-acetylglycerol], the STAT1 phosphorylation entry in the assay with STAT1 is “No effect”. Moreover, in the assay on platelets, the “patients whose platelet number dropped to less than 25,000” value is listed as “no patient”, the “patients with >50% decrease in platelet count” value worked out at 43.8%, the “patients with >60% decrease in platelet count” value is 25% and the “patients with >70% decrease in platelet count” value is on record as “none”. In addition, the “patients with anticancer treatment postponed or dose adjusted due to platelet number decrease to less than 50,000” value in the assay on platelets is listed as “no patient”. Further, in assay [1], the “increase of WBC over G-CSF alone” value is “more than 60%” and the “increase of neutrophils over G-CSF alone” value is “more than 70%”. Moreover, in the assay on C3, the “expression of C3” value is recorded as “suppressed by PLAG on a concentration dependent basis”. Besides, in the assay with neutrophils (LPS + PLAG), the “Neutrophil count in blood” value worked out at 3.41 k/μl and the “Neutrophil count in lymph” value was determined as 1.48 k/μl. Moreover, the “migration of neutrophils to the lymph node” value with neutrophils (LPS + PLAG vs LPS only) is recorded as “inhibits migration”. Besides, in the assay with Complement 3 (500 mg PLAG per day oral for a month), the “subjects showing decreased complement 3 (C3)” value is 26 subjects out of 27. Moreover, the “decrease of average concentration of C3 in blood” value with Complement 3 (after administration of PLAG 500 mg per day, 30 days) is reported as “about 10 mg/dL”. Also, the “C3, After” value with Complement 3 (healthy subjects n = 27, 500 mg PLAG per day oral, after 4-wk intervention) was 99.7 ± 12.4 mg/dL. In addition, the “C3, Before” value in the assay on Complement 3 (healthy subjects n = 27, before PLAG supplementation) was determined as 109.5 ± 13.0 mg/dL. The “number of splenic nodules and numbers of primitive progenitor cells and megakaryocytes” value in assay [2] is “marked increase”.
